Assay: physchem
Format: physicochemical
Text: The following results were obtained in our solubility study of aripiprazole monohydrate.

**Q.** For `O=C1CCc2ccc(OCCCCN3CCN(c4cccc(Cl)c4Cl)CC3)cc2N1` [aripiprazole monohydrate, 7-[4-[4-(2,3-dichlorophenyl)-1-piperazinyl]butoxy]-3,4-dihydrocarbostyril], which dissolved (pH 1.2 (0.1 N NCl)) is on record?
**A.** The dissolved was 25 mg per 250 mL.

**Q.** And the dissolved (pH 1.2 (USP buffer))?
**A.** Its dissolved is 9.75 mg per 250 mL.

**Q.** And the “Cmax (mg/250 mL) (Aripiprazole)” value (pH 4.5)?
**A.** The value was 8.25 mg/250 mL.

**Q.** And the dissolved (pH 4.5)?
**A.** The dissolved was 8.25 mg per 250 mL.

**Q.** What about the solubility (pH 4.5, aqueous buffer, Maximum Solubility (Cmax mg/mL)) of the same molecule?
**A.** The solubility was 33 µg/mL.

**Q.** And the “Cmax (mg/250 mL) (Aripiprazole)” value (pH 6.8)?
**A.** The value was 0 mg/250 mL.

**Q.** And the “Maximum Solubility (Cmax mg/mL)” value (pH 6.8)?
**A.** Its value is 0 mg/mL.

**Q.** And the dissolved (pH 6.8)?
**A.** The dissolved was “not dissolved”.

Source: patent EP2359816B1, “Aripiprazole formulations” (Arven Ilac Sanayi ve Ticaret A.S., priority 2010, dated 2011)
